According to PubChem BioAssay (NCI):
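These data come from cells grown in 96-well plates and exposed to compound for 48 hours at five concentrations. At the GI50, growth is halved. TGI marks complete inhibition of growth.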

Columns and labels:
Experiment in all cases: NCI anticancer screen, dose series, 48 h
[1] = tested on: SNB-75 CNS
[2] = tested on: NCI/ADR-RES ovarian
[3] = tested on: SK-MEL-28 melanoma
[4] = tested on: SF-268 CNS
[5] = tested on: T-47D breast
[6] = tested on: UO-31 renal
[7] = tested on: MDA-MB-231 breast
[8] = tested on: UACC-257 melanoma
[9] = tested on: NCI-H23 lung
[10] = tested on: MOLT-4 leukemia
[11] = tested on: SK-MEL-2 melanoma
[12] = tested on: SW-620 colon
[13] = tested on: HOP-92 NSCLC
[14] = tested on: HL-60(TB) leukemia
[15] = tested on: A549 NSCLC
[16] = tested on: SF-295 CNS
[17] = tested on: OVCAR-5 ovarian
[18] = tested on: UACC-62 melanoma
[19] = tested on: CCRF-CEM leukemia
[20] = tested on: HCT-15 colon
[21] = tested on: NCI-H522 lung
[22] = tested on: SK-MEL-5 melanoma
[23] = tested on: OVCAR-4 ovarian
[24] = tested on: CAKI-1 renal
[25] = tested on: NCI-H460 lung
[26] = tested on: EKVX NSCLC
[27] = tested on: HS 578T breast
[28] = tested on: NCI-H226 lung
[29] = tested on: COLO 205 colon
[30] = tested on: BT-549 breast
[31] = tested on: 786-0 renal
[32] = tested on: U251 CNS
[33] = tested on: OVCAR-8 ovarian
[34] = tested on: HCT-116 colon
[35] = tested on: SN12C renal
[36] = tested on: A498 renal
[37] = tested on: SF-539 CNS
[38] = tested on: M14 melanoma
[39] = tested on: OVCAR-3 ovarian
[40] = tested on: PC-3 prostate
[41] = tested on: KM12 colon
[42] = tested on: HOP-62 NSCLC
[43] = tested on: TK-10 renal
[44] = tested on: MALME-3M melanoma
[45] = tested on: SNB-19 CNS
[46] = tested on: HT29 colon
[47] = tested on: MDA-MB-435
[48] = tested on: ACHN renal
[49] = tested on: IGROV1 ovarian
[50] = tested on: DU-145 prostate
[51] = tested on: MCF7 breast
[52] = tested on: SK-OV-3 ovarian
[53] = tested on: LOX IMVI melanoma
[54] = tested on: RPMI-8226 leukemia
[55] = tested on: RXF 393 renal
[56] = tested on: K-562 leukemia
[57] = tested on: HCC-2998 colon

## C=C(C)CC1(O[Si](C)(C)C)C(=O)C(OCC)=C1OCC (stereo not drawn)
[1]
  TGI: > 100 µM
[2]
  TGI: > 100 µM
[3]
  TGI: > 100 µM
[4]
  TGI: > 100 µM
[5]
  TGI: > 100 µM
[6]
  TGI: > 100 µM
[7]
  TGI: > 100 µM
[8]
  TGI: > 100 µM
[9]
  TGI: > 100 µM
[10]
  TGI: > 100 µM
[11]
  TGI: > 100 µM
[12]
  TGI: > 100 µM
[13]
  TGI: > 100 µM
[14]
  TGI: > 100 µM
[15]
  TGI: > 100 µM
[16]
  TGI: > 100 µM
[17]
  TGI: > 100 µM
[18]
  TGI: > 100 µM
[19]
  TGI: > 100 µM
[20]
  TGI: > 100 µM
[21]
  TGI: > 100 µM
[22]
  TGI: > 100 µM
[23]
  TGI: > 100 µM
[24]
  TGI: > 100 µM
[25]
  TGI: > 100 µM
[26]
  TGI: > 100 µM
[27]
  TGI: > 100 µM
[28]
  TGI: > 100 µM
[29]
  TGI: > 100 µM
[30]
  TGI: > 100 µM
[31]
  TGI: > 100 µM
[32]
  TGI: > 100 µM
[33]
  TGI: > 100 µM
[34]
  TGI: > 100 µM
[35]
  TGI: > 100 µM
[36]
  TGI: > 100 µM
[37]
  TGI: > 100 µM
[38]
  TGI: > 100 µM
[39]
  TGI: > 100 µM
[40]
  TGI: > 100 µM
[41]
  TGI: > 100 µM
[42]
  TGI: > 100 µM
[43]
  TGI: > 100 µM
[44]
  TGI: > 100 µM
[45]
  TGI: > 100 µM
[46]
  TGI: > 100 µM
[47]
  TGI: > 100 µM
[48]
  TGI: > 100 µM
[49]
  TGI: > 100 µM
[50]
  TGI: > 100 µM
[51]
  TGI: > 100 µM
[52]
  TGI: > 100 µM
[53]
  TGI: > 100 µM

## c1ccc2c(-c3nc(-c4c[nH]c5ccncc45)cs3)c[nH]c2c1
[1]
  GI50: 10.3 µM
  TGI: 22.2 µM
[2]
  GI50: 3.2 µM
  TGI: 15.5 µM
[3]
  GI50: 1.84 µM
  TGI: 3.32 µM
[4]
  GI50: 2.51 µM
  TGI: 7.96 µM
[6]
  GI50: 1.21 µM
  TGI: 2.62 µM
[7]
  GI50: 1.06 µM
  TGI: 2.53 µM
[8]
  GI50: 1.8 µM
  TGI: 3.43 µM
[9]
  GI50: 1.85 µM
  TGI: 5 µM
[11]
  GI50: 2.09 µM
  TGI: 3.95 µM
[54]
  GI50: 1.25 µM
  TGI: 3.04 µM
[12]
  GI50: 1.73 µM
  TGI: 3.54 µM
[13]
  GI50: 1.44 µM
  TGI: 3.28 µM
[14]
  GI50: 2.02 µM
  TGI: 4.73 µM
[15]
  GI50: 2.45 µM
  TGI: 6.21 µM
[16]
  GI50: 1.58 µM
  TGI: 3.2 µM
[17]
  GI50: 2.59 µM
  TGI: 6.63 µM
[18]
  GI50: 1.67 µM
  TGI: 3.33 µM
[19]
  GI50: 1.44 µM
  TGI: 3.52 µM
[20]
  GI50: 1.56 µM
  TGI: 3.4 µM
[21]
  GI50: 1.92 µM
  TGI: 3.92 µM
[22]
  GI50: 1.6 µM
  TGI: 2.99 µM
[23]
  GI50: 2.96 µM
  TGI: 11.7 µM
[24]
  GI50: 1.98 µM
  TGI: 5.74 µM
[25]
  GI50: 1.76 µM
  TGI: 3.58 µM
[26]
  GI50: 1.78 µM
  TGI: 4.61 µM
[28]
  GI50: 3.24 µM
  TGI: 17.7 µM
[30]
  GI50: 8.82 µM
  TGI: 21.3 µM
[55]
  GI50: 1.55 µM
  TGI: 3.03 µM
[31]
  GI50: 1.89 µM
  TGI: 3.44 µM
[32]
  GI50: 1.93 µM
  TGI: 3.58 µM
[56]
  GI50: 2.05 µM
  TGI: 5.29 µM
[33]
  GI50: 1.97 µM
  TGI: 4.33 µM
[34]
  GI50: 1.71 µM
  TGI: 3.19 µM
[35]
  GI50: 1.67 µM
  TGI: 3.35 µM
[36]
  GI50: 10 µM
  TGI: 22.1 µM
[37]
  GI50: 1.79 µM
  TGI: 3.29 µM
[38]
  GI50: 1.7 µM
  TGI: 3.46 µM
[39]
  GI50: 1.98 µM
  TGI: 3.98 µM
[40]
  GI50: 1.84 µM
  TGI: 6.25 µM
[41]
  GI50: 2.02 µM
  TGI: 4.4 µM
[42]
  GI50: 1.71 µM
  TGI: 4.27 µM
[43]
  GI50: 2.76 µM
  TGI: 4.74 µM
[44]
  GI50: 1.65 µM
  TGI: 3.13 µM
[45]
  GI50: 2.18 µM
  TGI: 5.12 µM
[46]
  GI50: 2.07 µM
  TGI: 4.2 µM
[47]
  GI50: 1.75 µM
  TGI: 3.23 µM
[48]
  GI50: 1.72 µM
  TGI: 3.36 µM
[49]
  GI50: 1.33 µM
  TGI: 3.83 µM
[50]
  GI50: 3.36 µM
  TGI: 11.3 µM
[51]
  GI50: 1.43 µM
  TGI: 3.16 µM
[52]
  GI50: 2.62 µM
  TGI: 8.29 µM
[57]
  GI50: 1.87 µM
  TGI: 3.42 µM

## COC(=O)C1=C(C(=O)OC)C2(C)C=CC1O2 (stereo not drawn)
[1]
  TGI: 66.2 µM
[2]
  TGI: 37.6 µM
[3]
  TGI: 29.5 µM
[4]
  TGI: > 100 µM
[5]
  TGI: 13 µM
[6]
  TGI: 17.6 µM
[7]
  TGI: 31 µM
[8]
  TGI: 29.4 µM
[9]
  TGI: 32.4 µM
[11]
  TGI: 43.8 µM
[54]
  TGI: 4.04 µM
[12]
  TGI: 17.2 µM
[13]
  TGI: 24.4 µM
[15]
  TGI: > 100 µM
[17]
  TGI: 31.5 µM
[18]
  TGI: 31.9 µM
[20]
  TGI: 29.7 µM
[21]
  TGI: 5.56 µM
[22]
  TGI: 32.8 µM
[23]
  TGI: 27.2 µM
[25]
  TGI: > 100 µM
[26]
  TGI: 41.3 µM
[27]
  TGI: 72 µM
[28]
  TGI: 39.9 µM
[29]
  TGI: 32.6 µM
[30]
  TGI: 46 µM
[55]
  TGI: 57.6 µM
[31]
  TGI: 14.4 µM
[32]
  TGI: 31.9 µM
[56]
  TGI: 19.4 µM
[33]
  TGI: 31.7 µM
[34]
  TGI: 22.3 µM
[35]
  TGI: 31.3 µM
[36]
  TGI: 54 µM
[37]
  TGI: 33 µM
[38]
  TGI: 32.5 µM
[39]
  TGI: 2.86 µM
[40]
  TGI: 37.6 µM
[42]
  TGI: > 100 µM
[43]
  TGI: 8.24 µM
[44]
  TGI: 9.26 µM
[45]
  TGI: > 100 µM
[46]
  TGI: 28.5 µM
[47]
  TGI: 33.2 µM
[48]
  TGI: 18.7 µM
[49]
  TGI: 37.5 µM
[50]
  TGI: 31.8 µM
[51]
  TGI: > 100 µM
[52]
  TGI: > 100 µM
[57]
  TGI: 29.8 µM
[53]
  TGI: 34.5 µM
